These compounds were tested against recombinant sEH (soluble epoxide hydrolase, EPHX2) (Homo sapiens (Human), UniProt P34913) (assay: biochemical fluorometric sEH inhibition assay with Phome substrate). Settings: recombinant sEH purified from Sf9 insect cells, 2 nM sEH, 5 μM Phome, 60 minutes at 30° C.
How it was run: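 Human sEH expressed in Sf9 cells (2 nM final) pre-incubated 15 min at 30 °C with compound (0.0001-10 μM), then 5 μM Phome added for 60 min at 30 °C in 25 mM Hepes with 0.01% albumin. Fluorescent 6-methoxy-2-naphthaldehyde read before substrate addition and at the end; IC50 from % inhibition.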

Sequence of recombinant sEH (soluble epoxide hydrolase, EPHX2) (P34913 whole entry): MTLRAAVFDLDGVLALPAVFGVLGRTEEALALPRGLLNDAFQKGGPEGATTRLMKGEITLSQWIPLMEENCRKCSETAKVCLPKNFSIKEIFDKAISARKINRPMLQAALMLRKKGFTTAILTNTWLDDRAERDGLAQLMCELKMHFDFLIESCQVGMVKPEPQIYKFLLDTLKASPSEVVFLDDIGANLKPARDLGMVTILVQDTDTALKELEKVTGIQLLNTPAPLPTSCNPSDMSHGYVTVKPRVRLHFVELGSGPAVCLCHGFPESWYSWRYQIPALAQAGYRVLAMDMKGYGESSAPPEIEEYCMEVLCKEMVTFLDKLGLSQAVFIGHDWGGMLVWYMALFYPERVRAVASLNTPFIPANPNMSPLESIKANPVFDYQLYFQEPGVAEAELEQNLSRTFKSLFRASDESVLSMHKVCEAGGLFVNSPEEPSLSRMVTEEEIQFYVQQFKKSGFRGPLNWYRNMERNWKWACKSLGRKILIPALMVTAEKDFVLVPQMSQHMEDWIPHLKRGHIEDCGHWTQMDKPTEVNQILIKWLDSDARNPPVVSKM

Row | Structure (SMILES) | IC50
1 | O=C(NCc1ccc(Cl)cc1Cl)c1cnc(CN2CCN(C(=O)c3nc(F)ccc3F)CC2)s1 [Example 180] | 0.00846 µM
2 | O=C(NCc1ccc(Cl)cc1Cl)c1cnc(CN2CCN(C(=O)C3CCCO3)CC2)s1 (stereo not shown) [Example 182] | 0.0184 µM
3 | O=C(NCc1ccc(Cl)cc1Cl)c1cnc(CN2CCN(C(=O)C3CCOC3)CC2)s1 (stereo not shown) [Example 183] | 0.0188 µM
4 | CN1CCC[C@H]1C(=O)N1CCN(Cc2ncc(C(=O)NCc3ccc(Cl)cc3Cl)s2)CC1 [Example 184] | 0.115 µM
5 | O=C(NCc1ccc(Cl)cc1Cl)c1cnc(CN2CCN(C(=O)c3ccccn3)CC2)s1 [Example 186] | 0.0337 µM
6 | COCCOCC(=O)N1CCN(Cc2ncc(C(=O)NCc3ccc(Cl)cc3Cl)s2)CC1 [Example 188] | 0.0159 µM
7 | CC(O)C(=O)N1CCN(Cc2ncc(C(=O)NCc3ccc(Cl)cc3Cl)s2)CC1 (stereo not shown) [Example 189] | 0.0289 µM
8 | CN1CCC(C(=O)N2CCN(Cc3ncc(C(=O)NCc4ccc(Cl)cc4Cl)s3)CC2)CC1 [Example 190] | > 1 µM
9 | CC[C@H](O)C(=O)N1CCN(Cc2ncc(C(=O)NCc3ccc(Cl)cc3Cl)s2)CC1 [Example 191] | 0.014 µM
10 | Cc1cccnc1C(=O)N1CCN(Cc2ncc(C(=O)NCc3ccc(Cl)cc3Cl)s2)CC1 [Example 194] | 0.032 µM
11 | COc1cccnc1C(=O)N1CCN(Cc2ncc(C(=O)NCc3ccc(Cl)cc3Cl)s2)CC1 [Example 196] | 0.0364 µM
12 | CC(C)[C@@H](O)C(=O)N1CCN(Cc2ncc(C(=O)NCc3ccc(Cl)cc3Cl)s2)CC1 [Example 198] | 0.0133 µM
13 | CN(C)CCC(=O)N1CCN(Cc2ncc(C(=O)NCc3ccc(Cl)cc3Cl)s2)CC1 [Example 199] | 0.208 µM
14 | O=C(NCc1ccc(Cl)cc1Cl)c1cnc(CN2CCN(C(=O)C3(O)CC3)CC2)s1 [Example 201] | 0.00637 µM
15 | COc1cccc(C(=O)N2CCN(Cc3ncc(C(=O)NCc4ccc(Cl)cc4Cl)s3)CC2)n1 [Example 202] | 0.0133 µM
16 | O=C1NCC(C(=O)N2CCN(Cc3ncc(C(=O)NCc4ccc(Cl)cc4Cl)s3)CC2)N1 (stereo not shown) [Example 203] | 0.0363 µM
17 | CO[C@H](C)C(=O)N1CCN(Cc2ncc(C(=O)NCc3ccc(Cl)cc3Cl)s2)CC1 [Example 204] | 0.0188 µM
18 | COCC1(C(=O)N2CCN(Cc3ncc(C(=O)NCc4ccc(Cl)cc4Cl)s3)CC2)CC1 [Example 205] | 0.0057 µM
19 | Cc1n[nH]c(C)c1C(=O)N1CCN(Cc2ncc(C(=O)NCc3ccc(Cl)cc3Cl)s2)CC1 [Example 206] | 0.00524 µM
20 | COC(C)(C)C(=O)N1CCN(Cc2ncc(C(=O)NCc3ccc(Cl)cc3Cl)s2)CC1 [Example 207] | 0.00631 µM
21 | O=C(NCc1ccc(Cl)cc1Cl)c1cnc(CN2CCN(C(=O)C3CCC(O)C3)CC2)s1 (stereo not shown) [Example 209] | 0.00349 µM

The next lines start with the values.

Row | IC50 | Structure (SMILES)
22 | 0.0521 µM | O=C(NCc1ccc(Cl)cc1Cl)c1cnc(CN2CCN(C(=O)CO)CC2)s1 [Example 181]
23 | 0.0138 µM | CC(C)(O)CC(=O)N1CCN(Cc2ncc(C(=O)NCc3ccc(Cl)cc3Cl)s2)CC1 [Example 185]
24 | 0.0353 µM | COCC(=O)N1CCN(Cc2ncc(C(=O)NCc3ccc(Cl)cc3Cl)s2)CC1 [Example 192]
25 | 0.0152 µM | O=C(NCc1ccc(Cl)cc1Cl)c1cnc(CN2CCN(C(=O)CN3CCOC3=O)CC2)s1 [Example 193]
26 | 0.0736 µM | N#CCC(=O)N1CCN(Cc2ncc(C(=O)NCc3ccc(Cl)cc3Cl)s2)CC1 [Example 195]
27 | 0.0495 µM | CN1CC(C(=O)N2CCN(Cc3ncc(C(=O)NCc4ccc(Cl)cc4Cl)s3)CC2)CC1=O (stereo not shown) [Example 197]
28 | 0.00257 µM | NC1(C(=O)N2CCN(Cc3ncc(C(=O)NCc4ccc(Cl)cc4Cl)s3)CC2)CC1 [Example 200]
29 | 0.00967 µM | O=C(NCc1ccc(Cl)cc1Cl)c1cnc(CN2CCN(C(=O)C3CCO3)CC2)s1 (stereo not shown) [Example 208]
30 | 0.0524 µM | O=C(NCc1ccc(Cl)cc1Cl)c1cnc(CN2CCN(C(=O)CN3C[C@@H](O)CC3=O)CC2)s1 [Example 210]
31 | 0.0909 µM | O=C(NCc1ccc(Cl)cc1Cl)c1cnc(CN2CCN(C(=O)CN3CCC(O)C3)CC2)s1 (stereo not shown) [Example 211]
